Data set [1] deals with peripheral blast / bone marrow blast. The procedure: The samples were then flash frozen in −70° C. A small number of patient samples were frozen unlysed and lysed afterwards.
Data set [2] can be described thus: AC220 phase I study, tolerability. The class given is in vivo. To be noted: QD, patients of phase I study. From the text:
Thus, the pFLT3 ELISA of the invention successfully yielded useful pharmacodynamic data that not only guided the decision to change the dosing schedule from intermittent to continuous, but also guided the selection of the starting dose level for the 28-day continuous schedule, when information on dose limiting toxicity or maximum tolerated dose was still unavailable.

Like-named read-outs stand apart in the source and are kept apart here.

As to `CC(C)(C)c1cc(NC(=O)Nc2ccc(-c3cn4c(n3)sc3cc(OCCN5CCOCC5)ccc34)cc2)no1` [AC220], in data set [1] (Patient A), the “bone marrow blast percentage” value is listed as “appeared to reduce bone marrow blast percentage”. Moreover, the protocol defined response entry was “CRp/PR” in data set [1] (Patient D) and “CRi” in data set [1] (Patient E). In data set [2], this compound returned a maximum tolerated dose greater than 300 mg per day.
